Series [1] is described as follows: Downregulation of CDK8/19 in HEK293 cells assessed as mRNA expression level in KCTD12 gene at 1 uM for 3 hrs pretreatment and measured after 24 hr post wash-off by qt-PCR analysis. Particulars: Homo sapiens, time 27 hrs. Format: functional.
Series [2] concerns the target T1, CDK8/Cyclin C (Homo sapiens, UniProt P49336). The series can be described thus: Binding affinity to kinase tracer 236 binding to His tagged recombinant human CDK8/cyclinC assessed as dissociation constant by TR FRET based assay. Type of series: protein-complex assay. A general note: In TR-FRET formats the signal depends on donor and acceptor labels being close together.

Series [3] in a line: Elimination rate constant in plasma of BALB/c mouse xenografted with mouse CT26 cells at 2.5 mg/kg, iv by LC-MS/MS analysis. Format: ADME, organism-based.
For series [4], the system named is HEK293. In words: Inhibition of TNFalpha induced CDK8/19 dependent NF kappa B activity in Wild type HEK293 cell for 3 hrs by qt-PCR analysis. Type of series: functional, cell-based. The conditions noted are these: Homo sapiens.
The nature of series [5]: Oral bioavailability in plasma of BALB/c mouse xenografted with mouse CT26 cells at 100 mg/kg by LC-MS/MS. Type of series: ADME, organism-based.
Series [6] is described as follows: Oral bioavailability in tumor of BALB/c mouse xenografted with mouse CT26 cells at 100 mg/kg by LC-MS/MS. Type of series: ADME, organism-based, Neoplasm.
Series [7] addresses CDK8/Cyclin C (Homo sapiens) (UniProt P49336+P24863). In words: Binding affinity to kinase tracer 236 binding to His tagged recombinant human CDK8/cyclinC assessed as mean residence time by TR FRET based assay. Type of series: protein-complex assay.
The subject of series [8] is MV4-11. In words: Antitumor activity against human luciferase expressing MV4-11 AML cells xenografted in NOD SCID NSG mouse assessed as supression of tumor growth at 40 mg/kg, po bid for 4 weeks by bioluminescence imaging method. Type of series: functional, organism-based.
Series [9] deals with T1, CDK8/Cyclin C. The series can be described thus: Inhibition of kinase tracer 236 binding to His tagged recombinant human CDK8/cyclin C incubated for 60 min FRET based LanthaScreen Eu-Kinase binding assay. Format: protein-complex assay.
Series [10] can be described thus: Inhibition of CDK8/CDK19 in MV4-11 cells and measured after 7 days by Spectra max iD5 microplate reader. Type of series: cell-based, Homo sapiens.
Series [11] deals with HEK293. In words: Effect of compound on HEK293 cells assessed as mRNA expression in CDK8/19 dependent MYC gene in presence of pretreatment with TNFalpha for 2 hr by qPCR analysis. Particulars: Homo sapiens. Type of series: functional, cell-based. In general terms: Real-time PCR tracks product formation cycle by cycle.

The inhibition is the relative decrease from the control value, in per cent. By Kd is commonly meant the equilibrium constant for the complex coming apart. As a reminder, the bioavailability is the share of a dose that reaches the circulation, judged against a reference dose that is usually intravenous. A high value points to good availability. As usually defined, the IC50 is the concentration that inhibits the measured activity by half.

The source made the active and inactive calls. No cut-off for these calls is given here.

T1 sequence (P49336 whole entry): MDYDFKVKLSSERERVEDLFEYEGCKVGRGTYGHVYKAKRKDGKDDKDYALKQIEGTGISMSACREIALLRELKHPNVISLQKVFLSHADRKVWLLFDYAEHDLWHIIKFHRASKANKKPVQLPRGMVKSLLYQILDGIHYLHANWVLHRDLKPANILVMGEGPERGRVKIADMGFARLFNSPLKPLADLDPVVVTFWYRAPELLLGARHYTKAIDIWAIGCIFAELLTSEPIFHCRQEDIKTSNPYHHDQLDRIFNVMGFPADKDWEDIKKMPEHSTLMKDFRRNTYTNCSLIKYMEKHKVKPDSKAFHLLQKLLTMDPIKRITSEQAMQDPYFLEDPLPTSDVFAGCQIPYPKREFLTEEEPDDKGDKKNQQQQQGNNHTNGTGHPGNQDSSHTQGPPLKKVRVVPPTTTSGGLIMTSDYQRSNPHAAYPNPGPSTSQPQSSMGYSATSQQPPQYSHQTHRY
T1 sequence (P24863 whole entry, further chain): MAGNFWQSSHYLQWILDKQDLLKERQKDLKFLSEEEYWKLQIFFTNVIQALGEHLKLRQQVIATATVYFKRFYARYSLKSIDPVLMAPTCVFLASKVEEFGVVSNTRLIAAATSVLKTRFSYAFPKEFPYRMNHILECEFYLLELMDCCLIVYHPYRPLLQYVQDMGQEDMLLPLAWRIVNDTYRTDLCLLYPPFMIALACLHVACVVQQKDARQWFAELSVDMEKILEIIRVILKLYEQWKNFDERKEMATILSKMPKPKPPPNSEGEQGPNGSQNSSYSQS

For the compound `CN1CCN(C(=O)c2ccc3cc(CCNc4ccnc5ccc(C#N)cc45)ccc3c2)CC1`, in [1], the inhibition at 1 µM was 30%. Besides, in series [2], the Kd amounted to 1.39 nM. This compound had a k el in [3] of 0.000258 s⁻¹. The outcome in series [4], in [8] and in [11] was Active. The figures for the bioavailability in [5] and in [6] were 16.5% and 34.6%, respectively. For the same compound, the MRT in series [7] was found to be 13.6 min. Further, the IC50 in [9] is 3.6 nM; in [10] it was 108 nM.
